Experimental findings from ChEMBL document CHEMBL4706476, “Novel Tetrahydropyrido[4,3-d]pyrimidines as Potent Inhibitors of Chaperone Heat Shock Protein 90” (J Med Chem, 2016) are described below.

Series [1] has as its target Heat shock protein HSP 90-alpha (Homo sapiens, UniProt P07900). Briefly: Displacement of FITC-geldanamycin from N-terminal HSP90alpha (unknown origin) after 30 mins by fluorescence polarization competitive binding assay.
Series [2] addresses Endoplasmin (Homo sapiens, UniProt P14625). In words: Displacement of FITC-geldanamycin from N-terminal GRP94 (unknown origin) after 30 mins by fluorescence polarization competitive binding assay.
The nature of series [3]: Selectivity ratio of IC50 for inhibition of FITC-geldanamycin binding to N-terminal GRP94 (unknown origin) to IC50 for inhibition of FITC-geldanamycin binding to N-terminal HSP90alpha (unknown origin).
The subject of series [4] is HCT-116. In words: cells. To be noted: Homo sapiens, HCT-116, 72 h.
Description: Antiproliferative activity against human HCT-116 cells assessed as reduction in cell viability incubated for 72 hrs by MTT assay
Series [5] relates to MCF7. In words: cells. To be noted: Homo sapiens, MCF7, 72 h.
A short description of series [6]: Distribution coefficient, logD of compound at pH 7.4. The class given is physicochemical. To be noted: octanol/water.
The nature of series [7]: Permeability of the compound at pH 7.4 by PAMPA. The class given is ADME. The note with it: read-out: permeability. Background: PAMPA measures passive passage across an artificial lipid membrane.
A short description of series [8]: Intrinsic aqueous solubility of the compound. The class given is physicochemical.

pIC50: −log10 of the molar value. Values after ≈ are worked out from the molar mass of the structure shown.

Endoplasmin, sequence (P14625 whole entry): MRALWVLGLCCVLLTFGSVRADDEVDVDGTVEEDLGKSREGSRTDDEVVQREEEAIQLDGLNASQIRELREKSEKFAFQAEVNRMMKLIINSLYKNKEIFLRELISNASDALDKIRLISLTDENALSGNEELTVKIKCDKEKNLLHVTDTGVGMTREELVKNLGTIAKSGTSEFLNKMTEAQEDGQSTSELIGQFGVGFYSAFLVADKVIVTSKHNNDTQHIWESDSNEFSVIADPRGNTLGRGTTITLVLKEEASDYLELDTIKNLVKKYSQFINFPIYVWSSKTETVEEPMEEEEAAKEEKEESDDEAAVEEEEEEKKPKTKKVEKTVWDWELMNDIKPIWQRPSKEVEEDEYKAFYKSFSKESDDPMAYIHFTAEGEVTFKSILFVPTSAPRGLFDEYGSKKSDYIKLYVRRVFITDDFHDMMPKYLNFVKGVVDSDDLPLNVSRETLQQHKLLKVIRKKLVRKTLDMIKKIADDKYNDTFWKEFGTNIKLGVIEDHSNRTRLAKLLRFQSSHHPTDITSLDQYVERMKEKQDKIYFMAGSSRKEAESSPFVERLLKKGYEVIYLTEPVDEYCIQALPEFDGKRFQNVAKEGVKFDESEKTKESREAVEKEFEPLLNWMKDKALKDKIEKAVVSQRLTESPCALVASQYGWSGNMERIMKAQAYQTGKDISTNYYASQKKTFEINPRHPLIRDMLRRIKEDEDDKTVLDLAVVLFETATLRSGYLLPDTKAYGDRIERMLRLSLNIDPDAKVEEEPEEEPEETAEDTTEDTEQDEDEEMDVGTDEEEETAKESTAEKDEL

Broadly, the pIC50 is the negative decadic logarithm of the IC50, by convention in mol/L. Read a low pIC50 as a high IC50. As for `CCCCOc1ncc2c(n1)CCN(C(=O)c1cc(C(C)C)c(O)cc1O)C2`, the pIC50 was 7.06 in series [1], 6.17 in series [2], 5.90 in series [4] and 6.06 in series [5]. The Ratio IC50 in series [3] turned out to be 7.6.
The term logD denotes lipophilicity at a set pH, counting ionised and neutral species. The solubility is the dissolved amount per volume that the medium holds. As for `CC(C)c1cc(C(=O)N2CCc3nc(OCCN4CCCC4)ncc3C2)c(O)cc1O`, the logD in series [6] stood at 1.12. For the same compound, the pIC50 is 7.54 in series [1], 6.01 in series [4] and 5.71 in series [5]. The Papp in series [7] was found to be 3.06 ×10⁻⁶ cm/s. Moreover, the concentration in solution in series [8] (solubility) was 146 µg/mL (≈ 341 µM).
`CC(C)c1cc(C(=O)N2CCc3nc(OCCN4CCCCC4)ncc3C2)c(O)cc1O`: the logD in series [6] turned out to be 1.21. In addition, the negative logarithm of the IC50 (pIC50) in series [1] is 7.52; in series [4], 6.11; in series [5] it was 5.63. Besides, the Papp in series [7] is 20.5 ×10⁻⁶ cm/s. This compound yielded a solubility in series [8] of 175 µg/mL (≈ 396 µM).
On to `CCNc1ncc2c(n1)CCN(C(=O)c1cc(C(C)C)c(O)cc1O)C2`, for which the pIC50 is 6.78 in series [1], 5.81 in series [4] and 5.80 in series [5].
For `CC(C)c1cc(C(=O)N2CCc3nc(OC4CCCCC4)ncc3C2)c(O)cc1O` the same measures were 6.99, 5.56 and 5.73.
Consider `CCCNc1nc(OCCOC)nc2c1CN(C(=O)c1cc(C(C)C)c(O)cc1O)CC2`, for which the logD in series [6] came out at 2.92. Further, the pIC50 in series [1] is 7.49; in series [2] it was 6.10; in series [4], 6.40; in series [5], 6.46. Besides, the Papp in series [7] amounted to 78.7 ×10⁻⁶ cm/s. This compound gave a solubility in series [8] of 114 µg/mL (≈ 257 µM). Also, the Ratio IC50 in series [3] amounted to 24.9.
As to `CC(C)c1cc(C(=O)N2CCc3nc(OC4CCOCC4)ncc3C2)c(O)cc1O`, the pIC50 in series [1] was 7.25; in series [4] it was 6.22; in series [5] it was 6.09.
Consider `COCCOc1nc2c(c(N(C)C)n1)CN(C(=O)c1cc(C(C)C)c(O)cc1O)CC2`, for which the logD in series [6] was determined as 2.35. Moreover, the negative-log IC50 (pIC50) in series [1] was 7.80; in series [2], 6.71; in series [4], 6.59; in series [5], 6.48. Besides, in series [7], the Papp amounted to 83 ×10⁻⁶ cm/s. The compound also registered a solubility in series [8] of 153 µg/mL (≈ 355 µM). Moreover, the Ratio IC50 in series [3] was found to be 12.2.
In the case of `CCCNc1ncc2c(n1)CCN(C(=O)c1cc(C(C)C)c(O)cc1O)C2`, the figures for the pIC50 in series [1], in series [4] and in series [5] were 6.62, 5.63 and 5.63, respectively.
Consider `CC(C)Nc1ncc2c(n1)CCN(C(=O)c1cc(C(C)C)c(O)cc1O)C2`, for which the results for the pIC50 in series [1], in series [4] and in series [5] were 6.65, 5.61 and 5.57, respectively.
On to `Cc1ncc2c(n1)CN(C(=O)c1cc(Cl)c(O)cc1O)C2`, for which the pIC50 in series [1] is 6.32; in series [4], 4.97; in series [5], 5.26.
In series [6], `CCN(CC)CCOc1ncc2c(n1)CCN(C(=O)c1cc(C(C)C)c(O)cc1O)C2` returned a logD of 1.17. Also, the pIC50 in series [1] was 7.49; in series [2] it was 6.66; in series [4], 6.05; in series [5] it was 5.54. Further, in series [7], the Papp worked out at 25.7 ×10⁻⁶ cm/s. In series [8], this compound registered a solubility of 151 µg/mL (≈ 353 µM). Moreover, the Ratio IC50 in series [3] worked out at 6.8.
In the case of `CC(C)COc1ncc2c(n1)CCN(C(=O)c1cc(C(C)C)c(O)cc1O)C2`, the pIC50 in series [1] was 7.19; in series [2] it was 6.15; in series [4], 5.91; in series [5], 5.88. Besides, the Ratio IC50 in series [3] was 10.9.
Take `CC(C)c1cc(C(=O)N2CCc3nc(N4CCCCC4)ncc3C2)c(O)cc1O`: the values for the pIC50 in series [1], in series [4] and in series [5] were 6.76, 5.81 and 5.35, respectively.
Consider `COCCOc1nc2c(c(NC(C)C)n1)CN(C(=O)c1cc(C(C)C)c(O)cc1O)CC2`, for which, in series [6], the pH-dependent lipophilicity (logD) was found to be 2.98. The pIC50 in series [1] is 7.52; in series [2], 6.10; in series [4], 6.10; in series [5], 6.60. Besides, the Papp in series [7] was 62.4 ×10⁻⁶ cm/s. This compound had a solubility in series [8] of 137 µg/mL (≈ 309 µM). Moreover, the Ratio IC50 in series [3] came out at 26.2.
In the case of `Cc1ncc2c(n1)CN(C(=O)c1cc(Br)c(O)cc1O)C2`, the results for the pIC50 in series [1], in series [4] and in series [5] were 6.58, 5.81 and 5.43, respectively.
For `CCCCN(CCCC)c1ncc2c(n1)CCN(C(=O)c1cc(C(C)C)c(O)cc1O)C2` the same measures were 6.46, 5.89 and 5.95.
In turn, `CC(C)c1cc(C(=O)N2CCc3nc(OCCN4CCOCC4)ncc3C2)c(O)cc1O` gave a logD in series [6] of 1.48. For the same compound, the negative logarithm of the IC50 (pIC50) in series [1] was 7.55; in series [4], 5.97; in series [5], 5.91. Further, in series [7], the Papp was 30.2 ×10⁻⁶ cm/s. This compound yielded a solubility in series [8] of 140 µg/mL (≈ 316 µM).
In the case of `CC(C)c1cc(C(=O)N2CCc3nc(OC4CCCC4)ncc3C2)c(O)cc1O`, the pIC50 was 7.15 in series [1], 5.76 in series [4] and 5.92 in series [5].
The corresponding values for `CCN(CC)c1ncc2c(n1)CCN(C(=O)c1cc(C(C)C)c(O)cc1O)C2` are 6.70, 5.35 and 5.67.
Take `CCN1CCN(c2ncc3c(n2)CCN(C(=O)c2cc(C(C)C)c(O)cc2O)C3)CC1`: the pIC50 was 6.72 in series [1], 5.78 in series [4] and 5.84 in series [5].
In series [6], `COCCOc1nc2c(c(NC3CC3)n1)CN(C(=O)c1cc(C(C)C)c(O)cc1O)CC2` gave a logD of 2.45. The negative logarithm of the IC50 (pIC50) in series [1] is 7.72; in series [2], 6.67; in series [4] it was 6.64; in series [5], 6.80. Besides, the Papp in series [7] stood at 56.4 ×10⁻⁶ cm/s. Moreover, the solubility in series [8] amounted to 157 µg/mL (≈ 355 µM). The Ratio IC50 in series [3] came out at 11.4.
Consider `CC(C)c1cc(C(=O)N2CCc3nc(OC4CCN(C)CC4)ncc3C2)c(O)cc1O`, for which the negative logarithm of the IC50 (pIC50) in series [1] was 7.12; in series [4], 5.77; in series [5], 5.75.
Take `CCCN(CCC)c1ncc2c(n1)CCN(C(=O)c1cc(C(C)C)c(O)cc1O)C2`: the values for the pIC50 in series [1], in series [4] and in series [5] were 6.43, 5.24 and 5.51, respectively.
The corresponding values for `CC(C)c1cc(C(=O)N2CCc3nc(N(C)C)ncc3C2)c(O)cc1O` are 6.79, 5.99 and 5.86.
Compound `CCN(CC)c1nc(OCCOC)nc2c1CN(C(=O)c1cc(C(C)C)c(O)cc1O)CC2` yielded a logD in series [6] of 3.08. Besides, the pIC50 in series [1] is 6.99; in series [2], 5.96; in series [4], 5.45; in series [5], 5.54. Besides, in series [7], the Papp was determined as 107 ×10⁻⁶ cm/s. The compound also returned a solubility in series [8] of 95.9 µg/mL (≈ 209 µM). Also, the Ratio IC50 in series [3] was found to be 10.8.
Take `Cc1ncc2c(n1)CCN(C(=O)c1cc(Br)c(O)cc1O)C2`: the pIC50 in series [1] is 6.88; in series [4] it was 5.82; in series [5], 5.76.
Regarding `CC(C)Oc1ncc2c(n1)CCN(C(=O)c1cc(C(C)C)c(O)cc1O)C2`, the pIC50 was 7.19 in series [1], 6.29 in series [2], 5.91 in series [4] and 6.02 in series [5]. Besides, the Ratio IC50 in series [3] was 8.
For `COc1ncc2c(n1)CCN(C(=O)c1cc(C(C)C)c(O)cc1O)C2` the same measures were 7.12, 6.30, 5.94, 6.20 and 6.6.
Regarding `CC(C)c1cc(C(=O)N2CCc3nc(N4CCN(C)CC4)ncc3C2)c(O)cc1O`, the pIC50 is 6.57 in series [1], 5.77 in series [4] and 5.66 in series [5].
As for `Cc1ncc2c(n1)CCN(C(=O)c1cc(C(C)C)c(O)cc1O)C2`, the pIC50 in series [1] was 7.59; in series [2] it was 6.61; in series [4], 5.94; in series [5] it was 5.83. In addition, in series [7], the Papp came to 33.3 ×10⁻⁶ cm/s. In series [3], the Ratio IC50 turned out to be 9.4.
Take `Cc1ncc2c(n1)CN(C(=O)c1cc(C(C)C)c(O)cc1O)C2`: the negative-log IC50 (pIC50) in series [1] was 7.42; in series [2], 7.30; in series [4] it was 5.79; in series [5] it was 5.67. Further, the Papp in series [7] was found to be 27 ×10⁻⁶ cm/s. Also, in series [3], the Ratio IC50 was determined as 1.3.
For the compound `CC(=O)N1CCN(c2ncc3c(n2)CCN(C(=O)c2cc(C(C)C)c(O)cc2O)C3)CC1`, the pIC50 was 6.57 in series [1], 5.80 in series [4] and 5.44 in series [5].
For `CC(C)c1cc(C(=O)N2CCc3nc(N4CCOCC4)ncc3C2)c(O)cc1O` the same measures were 6.96, 5.83 and 5.74.
In the case of `CNc1ncc2c(n1)CCN(C(=O)c1cc(C(C)C)c(O)cc1O)C2`, the negative logarithm of the IC50 (pIC50) in series [1] is 6.95; in series [4], 6.13; in series [5] it was 5.90.
On to `CC(C)c1cc(C(=O)N2CCc3nc(N4CCCC4)ncc3C2)c(O)cc1O`, for which the pIC50 in series [1] was 6.95; in series [4], 5.94; in series [5] it was 5.34.
Take `CC(C)c1cc(C(=O)N2CCc3nc(OCCCN(C)C)ncc3C2)c(O)cc1O`: the logD in series [6] stood at 1.09. In addition, the pIC50 is 7.44 in series [1], 6.04 in series [4] and 5.63 in series [5]. The Papp in series [7] was determined as 4.15 ×10⁻⁶ cm/s. The same compound showed a solubility in series [8] of 156 µg/mL (≈ 375 µM).
Regarding `CCCOc1ncc2c(n1)CCN(C(=O)c1cc(C(C)C)c(O)cc1O)C2`, the pIC50 is 7.22 in series [1], 6.30 in series [2], 5.97 in series [4] and 5.87 in series [5]. Further, the Ratio IC50 in series [3] was 8.3.
As for `Cc1ncc2c(n1)CCN(C(=O)c1cc(Cl)c(O)cc1O)C2`, the negative-log IC50 (pIC50) in series [1] was 7.00.
